# Assay results published in ChEMBL document CHEMBL3392951, “Discovery of indole-derived pyridopyrazine-1,6-dione γ-secretase modulators that target presenilin” (Bioorg Med Chem Lett, 2015).
# Assay: Octanol-water partition coefficient, log D of the compound at pH 7.4 by shake flask method
# Assay type: physicochemical
row,logD,Compound
1,2.7,Cc1cn(-c2ccc3n(c2=O)CCN(Cc2cccc4ccccc24)C3=O)cn1
2,4.1,CCn1cc(CN2CCn3c(ccc(-n4cnc(C)c4)c3=O)C2=O)c2ccc(C(F)(F)F)cc21
3,3.3,Cc1cn(-c2ccc3n(c2=O)CCN(Cc2cccc4ccc(C(F)(F)F)cc24)C3=O)cn1
